Assay [1] deals with A549. The experiment in a line: Cytotoxicity against human A549 cells after 72 hrs by XTT assay. In kind it is functional, cell-based. The following applies: A549, 72 h. For orientation: Tetrazolium assays rely on reduction of a dye to a coloured formazan, in cell work by metabolically active cells.
Assay [2] can be described thus: Cytotoxicity against human PC3 cells after 72 hrs by XTT assay. The following applies: PC-3, 72 h. In kind it is functional, cell-based.
Assay [3] relates to A549. Kind of assay: Selectivity ratio of IC50 for human PC3 cells to IC50 for human A549 cells. In kind it is functional.
Assay [4] concerns Staphylococcus aureus. Kind of assay: Antimicrobial activity against Staphylococcus aureus MTCC 96 after 24 hrs by well diffusion method. In kind it is functional. The following applies: MTCC 96, 24 h. (Agar diffusion results depend on both activity and mobility in agar.)
Assay [5] concerns Bacillus subtilis. The experiment in a line: Antimicrobial activity against Bacillus subtilis MTCC 121 after 24 hrs by well diffusion method. It is filed as functional. The following applies: MTCC 121, 24 h.
In assay [6] the test system is Staphylococcus aureus. The experiment in a line: Antimicrobial activity against Staphylococcus aureus MLS16 MTCC 2940 after 24 hrs by well diffusion method. In kind it is functional. The settings on record: MLS16 MTCC 2940, 24 h.
The subject of assay [7] is Micrococcus luteus. Kind of assay: Antimicrobial activity against Micrococcus luteus MTCC 2470 after 24 hrs by well diffusion method. The settings on record: MTCC 2470, 24 h. In kind it is functional.
Assay [8] deals with Raoultella planticola. The experiment in a line: Antimicrobial activity against Klebsiella planticola MTCC 530 after 24 hrs by well diffusion method. It is filed as functional. The settings on record: MTCC 530, 24 h.
Assay [9] concerns Escherichia coli. Kind of assay: Antimicrobial activity against Escherichia coli MTCC 739 after 24 hrs by well diffusion method. In kind it is functional. The following applies: MTCC 739, 24 h.
Assay [10] has as its system Pseudomonas aeruginosa. Kind of assay: Antimicrobial activity against Pseudomonas aeruginosa MTCC 2453 after 24 hrs by well diffusion method. It is filed as functional. The settings on record: MTCC 2453, 24 h.
For assay [11], the system named is Candida albicans. Kind of assay: Antimicrobial activity against Candida albicans MTCC 3017 after 24 hrs by well diffusion method. It is filed as functional. The settings on record: MTCC 3017, 24 h.
In assay [12] the test system is Bacillus subtilis. The experiment in a line: Bactericidal activity against Bacillus subtilis MTCC 121 after 24 hrs by serial dilution method. In kind it is functional. The following applies: MTCC 121, 24 h.
Assay [13] concerns Staphylococcus aureus. Kind of assay: Bactericidal activity against Staphylococcus aureus MTCC 96 after 24 hrs by serial dilution method. It is filed as functional. The following applies: MTCC 96, 24 h.
Assay [14] concerns Staphylococcus aureus. Kind of assay: Bactericidal activity against Staphylococcus aureus MLS16 MTCC 2940 after 24 hrs by serial dilution method. In kind it is functional. The following applies: MLS16 MTCC 2940, 24 h.
In assay [15] the test system is Micrococcus luteus. The experiment in a line: Bactericidal activity against Micrococcus luteus MTCC 2470 after 24 hrs by serial dilution method. In kind it is functional. The settings on record: MTCC 2470, 24 h.
For assay [16], the system named is Raoultella planticola. The experiment in a line: Bactericidal activity against Klebsiella planticola MTCC 530 after 24 hrs by serial dilution method. In kind it is functional. The following applies: MTCC 530, 24 h.
The subject of assay [17] is Bacillus subtilis. Kind of assay: Antibiofilm activity against Bacillus subtilis MTCC 121 after 24 hrs by crystal violet staining based assay. In kind it is functional, organism-based. The following applies: MTCC 121, 24 h.
Assay [18] deals with Staphylococcus aureus. Kind of assay: Antibiofilm activity against Staphylococcus aureus MTCC 96 after 24 hrs by crystal violet staining based assay. It is filed as functional, organism-based. The following applies: MTCC 96, 24 h.
Assay [19] concerns Staphylococcus aureus. Kind of assay: Antibiofilm activity against Staphylococcus aureus MLS16 MTCC 2940 after 24 hrs by crystal violet staining based assay. In kind it is functional, organism-based. The following applies: MLS16 MTCC 2940, 24 h.
Assay [20] has as its system Micrococcus luteus. Kind of assay: Antibiofilm activity against Micrococcus luteus MTCC 2470 after 24 hrs by crystal violet staining based assay. The following applies: MTCC 2470, 24 h. In kind it is functional, organism-based.
In assay [21] the test system is Raoultella planticola. The experiment in a line: Antibiofilm activity against Klebsiella planticola MTCC 530 after 24 hrs by crystal violet staining based assay. It is filed as functional, organism-based. The settings on record: MTCC 530, 24 h.

Converted amounts (≈) assume the structure as drawn. A value given as a limit tells only on which side of the number the result lay.

The source of these data is ChEMBL document CHEMBL3808371, “Design, synthesis and biological evaluation of diaziridinyl quinone isoxazole hybrids” (Eur J Med Chem, 2016).

As for `O=C1C=C(N2CC2)C(=O)C(c2cc(-c3ccc(C(=O)N4CCCCC4)s3)on2)=C1N1CC1`, the IC50 in assay [1] turned out to be 1.7 µM; in assay [2], 21.3 µM; in assay [17], 2.8 µM; in assay [18], 11.2 µM; in [19], 9.8 µM; in assay [20] it was 35.6 µM. The IC50 in assay [21] was found to be 5.4 µM. The “Ratio IC50” value in [3] is 12. Further, the MIC is 15.6 µg/mL (≈ 34.6 µM) in assay [4]; 3.9 µg/mL (≈ 8.66 µM) in assay [5]; 15.6 µg/mL (≈ 34.6 µM) in assay [6]; 62.5 µg/mL (≈ 139 µM) in [7]; 7.8 µg/mL (≈ 17.3 µM) in assay [8]; more than 125 µg/mL in [9]. Also, the MIC in [10] was more than 125 µg/mL; in assay [11] it was 15.6 µg/mL (≈ 34.6 µM). Also, the minimum bactericidal concentration (MBC) amounted to 15.6 µg/mL (≈ 34.6 µM) in assay [12]; 31.2 µg/mL (≈ 69.3 µM) in [13]; 62.5 µg/mL (≈ 139 µM) in assay [14]; 125 µg/mL (≈ 277 µM) in assay [15]; 15.6 µg/mL (≈ 34.6 µM) in assay [16].

A word on the IC50: it is the concentration that inhibits the measured activity by half. The MIC is the least concentration at which growth counts as inhibited. Low readings indicate inhibition by little substance, high ones a need for much substance. A word on the MBC: it is the smallest concentration meeting the test's criterion for killing. Lower therefore signals more potent killing.
